Entries after “also recorded” stand apart in the source; their conditions may differ. Square brackets hold non-standard residues; d marks the D form. Ends that are not written are not given here. Peptide text beside a SMILES is read from it.
What was measured:
[1] = system: mice without acute pancreatitis; assay: Control groups: mice given galanin or galanin antagonist alone (saline, no caerulein); settings: mice without AP
[2] = system: caerulein-induced acute pancreatitis (AP) in mice; assay: Caerulein-induced acute pancreatitis in mice (mild model, 7 hourly i.p. injections) with galanin or galanin antagonists; type: in vivo, mouse (female Balb C or Swiss); settings: mouse caerulein AP
GALR2 = target: T1, GALR2 (Homo sapiens, UniProt O43603); settings: GALR2 vs GALR1; cited from earlier work
T1 sequence (O43603 1-387): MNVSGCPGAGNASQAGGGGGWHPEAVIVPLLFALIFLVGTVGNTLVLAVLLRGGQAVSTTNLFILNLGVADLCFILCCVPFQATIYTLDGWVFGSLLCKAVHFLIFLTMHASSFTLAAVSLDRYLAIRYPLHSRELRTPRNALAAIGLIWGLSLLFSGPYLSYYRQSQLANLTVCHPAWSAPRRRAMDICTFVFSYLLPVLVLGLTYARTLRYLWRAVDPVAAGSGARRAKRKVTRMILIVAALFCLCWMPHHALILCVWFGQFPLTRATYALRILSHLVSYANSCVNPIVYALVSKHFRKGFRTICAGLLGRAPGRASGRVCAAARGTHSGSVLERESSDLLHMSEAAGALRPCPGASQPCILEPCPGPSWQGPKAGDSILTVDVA

[3] = 20 nmol/kg i.p. with each caerulein injection, reduction of AP-induced level
[4] = 40 nmol/kg i.p. with each caerulein injection, vs AP alone
[5] = dose not given (20 and 40 nmol/kg tested)
[6] = dose not given (20 and 40 nmol/kg tested), decrease of AP-induced level
[7] = 40 nmol/kg i.p. with each caerulein injection, reduction of AP-induced level

Molecule: CC(C)C[C@H](NC(=O)CNC(=O)[C@H](CC(N)=O)NC(=O)[C@H](CCCCN)NC(=O)[C@H](CC(=O)O)NC(=O)[C@H](CO)NC(=O)[C@H](Cc1ccccc1)NC(=O)[C@H](CO)NC(=O)[C@H](CCCNC(=N)N)NC(=O)[C@H](Cc1cnc[nH]1)NC(=O)[C@H](CC(N)=O)NC(=O)CNC(=O)[C@@H](NC(=O)[C@H](C)NC(=O)[C@H](Cc1cnc[nH]1)NC(=O)[C@@H]1CCCN1C(=O)CNC(=O)[C@H](CC(C)C)NC(=O)[C@H](CC(C)C)NC(=O)[C@H](Cc1ccc(O)cc1)NC(=O)CNC(=O)[C@H](C)NC(=O)[C@H](CO)NC(=O)[C@H](CC(N)=O)NC(=O)[C@H](CC(C)C)NC(=O)[C@@H](NC(=O)[C@H](Cc1c[nH]c2ccccc12)NC(=O)CN)[C@@H](C)O)C(C)C)C(=O)N[C@H](C(=O)N[C@@H](CO)C(=O)O)[C@@H](C)O [Galanin]
- plasma amylase activity ([1]; 10 nmol/kg alone, vs baseline): did not increase plasma amylase activity above baseline activity
- plasma lipase activity ([1]; 10 nmol/kg alone, vs baseline): did not increase plasma lipase activity above baseline activity
- pancreatic myeloperoxidase (MPO) activity ([1]; 10 nmol/kg alone, vs saline control): did not significantly increase pancreatic MPO activity above that measured in saline control

Molecule: Galanin(1-13)-Pro-Pro-Ala-Leu-Ala-Leu-Ala amide (GWTLNSAGYLLGPPPALALA-NH2) [M40]
- pancreatic acinar cell vacuolization score ([2]; 20 nmol/kg): significantly reduced
- pancreatic myeloperoxidase (MPO) activity [2, 3]: significantly reduced
- pancreatic acinar cell vacuolization score ([2]; 40 nmol/kg): significantly reduced
- pancreatic myeloperoxidase (MPO) activity [2, 4]: significantly reduced
- pancreatitis-induced plasma hyperenzymemia ([2]; co-treatment, 20 and 40 nmol/kg tested): failure to reduce the pancreatitis-induced plasma hyperenzymemia
- pancreatic acinar cell necrosis score [2, 5]: without effect
- pancreatic acinar cell vacuolization score [2, 5]: did
- pancreatic myeloperoxidase (MPO) activity [2, 6]: decreased

Molecule: M35: GWTLNSAGYLLGPPPGFSPFR (SEQ ID NO: 15); amino terminal portion of galanin linked to bradykinin
- pancreatic myeloperoxidase (MPO) activity [2, 3]: significantly reduced
- pancreatic acinar cell necrosis score ([2]; 40 nmol/kg (high dose), histology scoring system): reduced the necrosis score; also recorded: significantly reduced
- plasma amylase activity [2, 7]: depressed; also recorded: significantly reduced
- plasma lipase activity [2, 7]: significantly reduced
- pancreatic myeloperoxidase (MPO) activity [2, 4]: significantly reduced
- pancreatic acinar cell vacuolization score [2, 5]: failed to improve the acute pancreatitic-induced vacuolization; also recorded: without effect
- pancreatic myeloperoxidase (MPO) activity [2, 6]: decreased

Molecule: CC(C)C[C@H](NC(=O)[C@H](CC(C)C)NC(=O)[C@@H](Cc1c[nH]c2ccccc12)NC(=O)[C@H](Cc1ccccc1)NC(=O)[C@@H](Cc1c[nH]c2ccccc12)NC(=O)[C@H](CCC(N)=O)NC(=O)[C@H](CCC(N)=O)NC(=O)[C@@H]1CCCN1C(=O)[C@H](CCCCN)NC(=O)[C@@H]1CCCN1C(=O)[C@@H](CCCNC(=N)N)NC(=O)[C@@H]1CCCN1C(=O)CNC(=O)[C@H](CC(C)C)NC(=O)[C@H](CC(C)C)NC(=O)[C@H](Cc1ccc(O)cc1)NC(=O)CNC(=O)[C@H](C)NC(=O)[C@H](CO)NC(=O)[C@H](CC(N)=O)NC(=O)[C@H](CC(C)C)NC(=O)[C@@H](NC(=O)[C@H](Cc1c[nH]c2ccccc12)NC(=O)CN)[C@@H](C)O)C(N)=O [C7, Galanin(1-13)-spantide amide] (H-GWTLNSAGYLLGP[dR]PKPQQ[dW]F[dW]LL-NH2)
- pancreatic myeloperoxidase (MPO) activity ([1]; 40 nmol/kg alone): produced an increase in pancreatic MPO activity; also recorded: significantly elevated pancreatic MPO activity

Molecule: Galanin 2-29: galanin fragment 2-29 (WTLNSAGYLLGPHAVGNHRSFSDKNGLT; ends and bridges not checked; UniProt P22466 34-61, looked up, fragment)
- affinity for GALR2 relative to GALR1 (GALR2): higher affinity than GALR1

From US8318657B2, “Methods and compositions for preventing and/or treating pancreatitis” (Flinders Technologies Pty Ltd., priority 2005, dated 2012)
